Columns and labels:
oleic acid turnover = test: 3H-labeled oleic acid turnover (in vivo lipolysis); set-up: species or system mouse
Method: FIGS. 1A-1I: FGF1 suppresses adipose lipolysis. (FIG. 1A) Ex-vivo lipolysis in gonadal white adipose tissue (gWAT) explants from wildtype (F1WT) and FGF1 KO (FIKO) mice 6 h after refeeding. Data are represented as mean±SEM (n=4, *p<0.05). (FIG. 1B) Lipolysis in mouse SVF-derived adipocytes measured by the cumulative release of free fatty acids (FFAs) into the media over 4 h. Cells were pretreated with vehicle (PBS) or FGF1 (100 ng/ml) for 10 min prior to the induction of lipolysis with 1 nM isoproterenol (ISO). Data are represented as mean±SEM (n=3, *p<0.05, **p<0.01). (FIG. 1C) Dose response of FGF1-induced suppression of lipolysis in 3T3-L1 adipocytes. Cells were pretreated with the indicated doses of FGF1 for 10 min prior to the induction of lipolysis with 100 nM isoproterenol (ISO), and the cumulative release of FFAs over 4 h was measured. Data are represented as mean±SEM (n=3, **p<0.01, ***p<0.001). […] Plasma radioactivity was measured by scintillation counting and normalized to t=1 min. Fractional oleic acid turnover rate was calculated by linear regression of natural log transformed data (adR1WT vehicle n=5, FGF1 n=4; adR1KO vehicle n=4, FGF1 n=5). […] Quantification of pHSL-S660 normalized to total HSL is shown in the right panel. […] Quantification of pHSL-S660 normalized to total HSL (right panel). […]

adipose tissue explants = test: Ex vivo lipolysis in adipose explants of treated mice; set-up: species or system mouse
Method: For in vitro lipolysis assay, cells were washed with PBS and media were changed to full growth media 1 day before experiment. Cells were serum starved for 2 h and placed in KRBH buffer (30 mM HEPES, 120 mM NaCl, 4 mM KH2PO4, 1 mM MgSO4, 0.75 mM CaCl2), and 10 mM NaHCO3) with 2% fatty acid free BSA and 5 mM glucose. FGF1 was added 10 min before induction of lipolysis with 100 nM isoprotenol (ISO). Inhibitors were added 30 min prior to FGF1 treatment unless otherwise noted. Media were collected and cells were lysed in protein extraction buffer. FFAs were measured in the media using a commercial kit (Wako-NEFAHR2) and normalized to protein concentration. For ex vivo lipolysis, the assay was modified from a published protocol (Funicello et al., 2007). Briefly, approximately 0.1 gram of adipose tissue was excised, weighed and kept in cold PBS until treatment and control tissues were collected. Tissues were cut into small pieces and incubated in same KRBH buffer as described above for 4 h. FFAs were measured and normalized by the explant weights.

serum FFA levels = test: Serum FFA levels in DIO mice; assay type: in vivo, mouse; details: FGF1 0.5 mg/kg s.c.
Method: (§1) Mice were kept in 12 h light/dark cycle in a temperature-controlled environment. Mice had free access to food and water unless noted otherwise. C57/B6 mice background was used unless noted otherwise. C57BL/6J and ob/ob (000632-B6. Cg-Lepob/J) male mice were obtained from Jackson Laboratory. PDE4D knock-out mice (034588-UCD) were obtained from MMRRC. For diet-induced obesity (DIO) studies, mice were fed a high fat diet (HFD) (60% fat, F3282; Bio-Serv) for minimum of 12 weeks to induce insulin resistance when diet-induced obese model is used. Insulin levels and blood glucose levels were monitored to confirm insulin resistance. To generate adipose-specific FGFR1 deletion, adiponectin-cre mice (B6; FVB-Tg (Adipoq-cre)1Evdr/J; Stock: 010803) were crossed to Fgfr1 flox/flox (B6.129S4-Fgfr1tm5.1Sor/J; Stock: 00767) mice. For AAV mediated expression of target proteins in adipose tissue, 5×10E+11 genomic copies of AAV were injected via tail vein or retro-orbital route.
(§2) Recombinant FGF1 (rFGF1) was dissolved in phosphate-buffered saline (PBS) at a concentration of 0.2 mg/ml and was injected subcutaneously at a 0.5 mg kg^−1 dose. Blood glucose was monitored at indicated time points after injection. For initial measurements (2-4 h) food was removed after injection to exclude any indirect effects stemming from anorexigenic effects of FGF1. PDE4 inhibitor roflumilast stock in DMSO was diluted at 1 mg/ml in 30% captisol, pH 10 and delivered to mice thorough oral gavage at 5 mg kg^−1 dose. PDE3 inhibitor cilostamide stock in DMSO was diluted at 2 mg/ml in 30% captisol and delivered through intraperitoneal injection at 10 mg kg^−1 dose.

blood glucose levels = test: Blood glucose levels in DIO mice; assay type: in vivo, mouse; details: for blood glucose levels: 0.5 mg/kg FGF1 s.c.
Method: as §1, §2

Q: How did the oleic acid turnover (oleic acid turnover; adR1KO mice, FGF1 pretreatment) turn out when “FGF1: Recombinant fibroblast growth factor 1 protein, dissolved in PBS, injected subcutaneously” was run?
A: not affected

Q: And the “fractional turnover rate of oleic acid” value (oleic acid turnover; adR1WT mice, FGF1 0.5 mg/kg s.c. 6 h before infusion)?
A: reduced

Q: And the “lipolysis in brown adipose tissue” value (adipose tissue explants; BAT explants, chow-fed mice, 6 h after FGF1 0.5 mg/kg)?
A: did not affect lipolysis in brown adipose tissue

Q: And the “FGF1 suppression of lipolysis in adipose explants under PDE4 inhibition” value (adipose tissue explants; DIO mice gavaged with PDE4 inhibitor 1 h prior to FGF1 injection)?
A: blocked the ability of FGF1 to suppress lipolysis

Q: What about the ex vivo lipolysis (adipose tissue explants; gWAT and iWAT explants, DIO adR1WT vs adR1KO, 2 h after FGF1 0.5 mg/kg) of the same substance?
A: suppressed

Q: And the “serum FFA levels” value (serum FFA levels; overnight fasted DIO adR1KO mice)?
A: failed to affect adR1KO mice

Q: What about the “reduction of serum FFA levels” value (serum FFA levels; overnight fasted DIO adR1WT mice, 30 min) of the same substance?
A: ~30%

Q: And the blood glucose levels (blood glucose levels; DIO adR1KO mice)?
A: failed to affect adR1KO mice

Q: And the “ability of FGF1 to modulate glucose levels under inhibition of PDE3” value (blood glucose levels; DIO mice, FGF1 0.5 mg/kg, cilostamide 10 mg/kg)?
A: failed to affect the ability of FGF1 to modulate glucose levels

Q: What about the blood glucose levels (blood glucose levels; DIO wild type mice (adR1WT)) of the same substance?
A: rapidly decreased blood glucose levels

Q: And the blood glucose (blood glucose levels; HFD-fed PDE4D KO mice, FGF1 0.5 mg/kg)?
A: failed to lower blood glucose

Q: What about the “FGF1 blood glucose lowering with adAAV-driven expression of PDE4D3 in adipose tissue” value (blood glucose levels; PDE4D KO DIO mice 4 weeks after adAAV, FGF1 0.5 mg/kg) of the same substance?
A: restored

Q: What about the “ability of FGF1 to reduce blood glucose levels with roflumilast pretreatment” value (blood glucose levels; ad lib fed DIO mice, FGF1 0.5 mg/kg, roflumilast 5 mg/kg) of the same substance?
A: lost
